# Tests used:
# Format in all cases: in vivo
# [1] = tested on: peach aphids (Myzus persicae); assay: Myzus test; conditions: concentration of active compound 0.1 %, infested cabbage leaves (Brassica oleracea) dipped
# Procedure: Myzus Test [table] To produce a suitable preparation of active compound, 1 part by weight of active compound is mixed with the stated amounts of solvent and emulsifier, and the concentrate is diluted with water to the desired concentration. Cabbage leaves (Brassica oleracea) which are heavily infested by peach aphids (Myzus persicae) are treated by being dipped into the preparation of active compound of the desired concentration. After the desired period of time, the kill in % is determined. 100% means that all aphids have been killed; 0% means that none of the aphids have been killed.
# [2] = tested on: larvae of the green rice leaf-hopper (Nephotettix cincticeps); assay: Nephotettix test; conditions: active compound 0.1 %, rice seedlings (Oryza sativa) dipped
# Procedure: Nephotettix Test [table] To produce a suitable preparation of active compound, 1 part by weight of active compound is mixed with the stated amounts of solvent and emulsifier, and the concentrate is diluted with water to the desired concentration. Rice seedlings (Oryza sativa) are treated by being dipped into the preparation of active compound of the desired concentration and are populated with larvae of the green rice leaf-hopper (Nephotettix cincticeps) while the leaves are still moist. After the desired period of time, the kill in % is determined. 100% means that all leaf-hoppers have been killed; 0% means that none of the leaf-hoppers have been killed.
# [3] = tested on: larvae of the mustard beetle (Phaedon cochleariae); assay: Phaedon larvae test; conditions: concentration of active compound 0.1 %, cabbage leaves (Brassica oleracea) dipped
# Procedure: Phaedon larvae Test [table] To produce a suitable preparation of active compound, 1 part by weight of active compound is mixed with the stated amounts of solvent and emulsifier, and the concentrate is diluted with water to the desired concentration. Cabbage leaves (Brassica oleracea) are treated by being dipped into the preparation of active compound of the desired concentration and are populated with larvae of the mustard beetle (Phaedon cochleariae) while the leaves are still moist. After the desired period of time, the kill in % is determined. 100% means that all […] have been killed.
Compound,Kill in % after 6 days [2] [%],Kill in % after 7 days [3] [%],further results
CCOC1CCC2(CC1)NC(=O)C(c1c(C)cc(-c3ccc(Cl)cc3)cc1C)=C2O (centres unmarked) [drawing 171],–,–,Kill in % after 6 days [1]: 95%
COC1CCC2(CC1)NC(=O)C(c1c(C)cc(-c3ccc(Cl)cc3)cc1Cl)=C2O (centres unmarked) [drawing 172],100,–,–
CCOC1CCC2(CC1)NC(=O)C(c1c(C)cc(-c3ccc(Cl)cc3)cc1C)=C2O (centres unmarked) [drawing 173],100,–,–
COC1CCC2(CC1)NC(=O)C(c1c(C)cc(-c3ccc(Cl)cc3)cc1Cl)=C2O (centres unmarked) [drawing 174],–,100,–
CCOC1CCC2(CC1)NC(=O)C(c1c(C)cc(-c3ccc(Cl)cc3)cc1C)=C2O (centres unmarked) [drawing 175],–,100,–

# — patent US7288676B2, “Arylphenyl-substituted cyclic ketoenols” (Bayer CropScience AG, priority 1998, dated 2007)
